Measured values taken from publication PMC9604064, “Comparative Assessment of the Inhibitory Potential of the Herbicide Glyphosate and Its Structural Analogs on RGD-Specific Integrins Using Enzyme-Linked Immunosorbent Assays” (International Journal of Molecular Sciences, 2022).
“Also recorded” adds a separate entry of the source. Where two headings read alike, the source gives them in different places.

Legend:
integrin αVβ3 [1] = biological target: T1, integrin αVβ3 (Homo sapiens, UniProt P05106+P06756); assay: biochemical; type: binding; settings: for inhibition: read-out: Maximal Inhibition Achieved (converted)
T1 construct: purchased R&D Systems Inc. (Minneapolis, MN, USA)

integrin αVβ3 [2] = biological target: T1, integrin αVβ3; assay: biochemical; type: binding; settings: for inhibition: at 22 mM (highest concentration), read-out: Maximal Inhibition Achieved (converted)
integrin αllbβ3 = biological target: T2, integrin αllbβ3 (Homo sapiens, UniProt P05106+P08514); assay: biochemical; type: binding
T2 construct: purchased Enzyme Research Laboratories Ltd. (Swansea, UK)

integrin α5β1 = biological target: T3, integrin α5β1 (Homo sapiens, UniProt P05556+P08648); assay: biochemical; type: binding; settings: for inhibition: at 22 mM (highest concentration), read-out: Maximal Inhibition Achieved (converted)
T3 construct: purchased R&D Systems Inc. (Minneapolis, MN, USA)

[3] = cited from earlier work
integrin αVβ3 [4] = biological target: T1, integrin αVβ3; settings: at 11 mM; previously developed assay; cited from earlier work
integrin αVβ3 [5] = biological target: T1, integrin αVβ3; type: binding; settings: immobilized SARS-CoV-2 S-protein; maximal inhibition, range up to 22 mM
MC3T3-E1 cells = settings: biosensoric measurement, concentration-dependent, via blocking RGD-specific integrins; cited from earlier work
[6] = parameters: method as in earlier work; settings: not marked *; octanol/water; cited from earlier work
[7] = integrin αVβ3, immobilized RGD polymer, at 22 mM (highest concentration)
[8] = integrin αVβ3, immobilized RGD polymer, ligand range 0.1-22 mM
[9] = integrin αVβ3, immobilized vitronectin
[10] = integrin αVβ3, immobilized vitronectin, ligand range 0.1-22 mM
[11] = integrin αllbβ3, immobilized fibrinogen, at 22 mM, activation = higher absorbance than negative control, n. d. = not detected
[12] = integrin αllbβ3, immobilized fibrinogen, ligand range 0.1-22 mM
[13] = integrin α5β1, immobilized RGD polymer
[14] = integrin α5β1, immobilized RGD polymer, ligand range 0.1-22 mM

T3 sequence (P08648 42-995 limits assumed): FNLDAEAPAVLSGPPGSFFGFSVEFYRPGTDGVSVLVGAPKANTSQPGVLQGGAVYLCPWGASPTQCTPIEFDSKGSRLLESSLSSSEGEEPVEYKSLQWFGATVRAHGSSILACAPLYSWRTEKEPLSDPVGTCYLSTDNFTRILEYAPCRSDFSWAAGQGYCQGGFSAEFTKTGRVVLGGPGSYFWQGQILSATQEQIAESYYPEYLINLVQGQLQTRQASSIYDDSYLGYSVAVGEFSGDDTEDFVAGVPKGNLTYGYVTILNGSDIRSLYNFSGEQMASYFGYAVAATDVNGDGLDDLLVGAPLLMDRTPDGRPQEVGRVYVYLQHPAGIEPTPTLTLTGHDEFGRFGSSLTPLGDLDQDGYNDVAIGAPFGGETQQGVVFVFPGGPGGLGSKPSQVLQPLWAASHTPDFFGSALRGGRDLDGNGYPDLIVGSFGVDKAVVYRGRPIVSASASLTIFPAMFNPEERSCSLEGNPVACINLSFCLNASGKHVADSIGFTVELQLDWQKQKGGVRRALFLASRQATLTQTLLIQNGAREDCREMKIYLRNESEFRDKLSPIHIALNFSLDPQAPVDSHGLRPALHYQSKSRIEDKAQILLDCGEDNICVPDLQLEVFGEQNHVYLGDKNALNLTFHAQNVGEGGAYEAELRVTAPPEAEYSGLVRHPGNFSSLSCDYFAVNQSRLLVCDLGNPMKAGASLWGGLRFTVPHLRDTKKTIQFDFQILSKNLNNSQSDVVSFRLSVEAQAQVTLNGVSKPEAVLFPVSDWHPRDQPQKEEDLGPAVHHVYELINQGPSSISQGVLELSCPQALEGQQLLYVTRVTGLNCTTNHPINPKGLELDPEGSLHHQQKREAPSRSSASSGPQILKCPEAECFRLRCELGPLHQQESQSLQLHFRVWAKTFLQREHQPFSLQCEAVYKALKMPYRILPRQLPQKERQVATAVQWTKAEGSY
T3 sequence (P05556 21-728 limits assumed): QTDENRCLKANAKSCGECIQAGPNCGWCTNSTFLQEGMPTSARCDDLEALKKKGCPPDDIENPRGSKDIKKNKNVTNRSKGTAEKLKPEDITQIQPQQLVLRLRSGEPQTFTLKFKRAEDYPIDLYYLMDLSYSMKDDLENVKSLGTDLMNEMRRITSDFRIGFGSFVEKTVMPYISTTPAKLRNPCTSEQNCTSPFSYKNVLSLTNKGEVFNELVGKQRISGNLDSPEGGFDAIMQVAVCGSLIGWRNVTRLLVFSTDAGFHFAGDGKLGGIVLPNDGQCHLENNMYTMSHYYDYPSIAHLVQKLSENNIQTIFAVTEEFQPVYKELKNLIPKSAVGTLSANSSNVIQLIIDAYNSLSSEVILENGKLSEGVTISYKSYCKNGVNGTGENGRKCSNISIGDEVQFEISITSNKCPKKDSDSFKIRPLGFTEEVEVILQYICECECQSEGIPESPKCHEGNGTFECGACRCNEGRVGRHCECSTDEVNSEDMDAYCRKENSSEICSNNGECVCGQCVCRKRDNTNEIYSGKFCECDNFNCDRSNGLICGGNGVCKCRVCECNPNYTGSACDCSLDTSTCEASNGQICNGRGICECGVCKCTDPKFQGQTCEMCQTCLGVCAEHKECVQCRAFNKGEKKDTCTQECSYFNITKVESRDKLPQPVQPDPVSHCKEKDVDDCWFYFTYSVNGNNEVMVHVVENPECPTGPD
T1 sequence (P06756 31-992): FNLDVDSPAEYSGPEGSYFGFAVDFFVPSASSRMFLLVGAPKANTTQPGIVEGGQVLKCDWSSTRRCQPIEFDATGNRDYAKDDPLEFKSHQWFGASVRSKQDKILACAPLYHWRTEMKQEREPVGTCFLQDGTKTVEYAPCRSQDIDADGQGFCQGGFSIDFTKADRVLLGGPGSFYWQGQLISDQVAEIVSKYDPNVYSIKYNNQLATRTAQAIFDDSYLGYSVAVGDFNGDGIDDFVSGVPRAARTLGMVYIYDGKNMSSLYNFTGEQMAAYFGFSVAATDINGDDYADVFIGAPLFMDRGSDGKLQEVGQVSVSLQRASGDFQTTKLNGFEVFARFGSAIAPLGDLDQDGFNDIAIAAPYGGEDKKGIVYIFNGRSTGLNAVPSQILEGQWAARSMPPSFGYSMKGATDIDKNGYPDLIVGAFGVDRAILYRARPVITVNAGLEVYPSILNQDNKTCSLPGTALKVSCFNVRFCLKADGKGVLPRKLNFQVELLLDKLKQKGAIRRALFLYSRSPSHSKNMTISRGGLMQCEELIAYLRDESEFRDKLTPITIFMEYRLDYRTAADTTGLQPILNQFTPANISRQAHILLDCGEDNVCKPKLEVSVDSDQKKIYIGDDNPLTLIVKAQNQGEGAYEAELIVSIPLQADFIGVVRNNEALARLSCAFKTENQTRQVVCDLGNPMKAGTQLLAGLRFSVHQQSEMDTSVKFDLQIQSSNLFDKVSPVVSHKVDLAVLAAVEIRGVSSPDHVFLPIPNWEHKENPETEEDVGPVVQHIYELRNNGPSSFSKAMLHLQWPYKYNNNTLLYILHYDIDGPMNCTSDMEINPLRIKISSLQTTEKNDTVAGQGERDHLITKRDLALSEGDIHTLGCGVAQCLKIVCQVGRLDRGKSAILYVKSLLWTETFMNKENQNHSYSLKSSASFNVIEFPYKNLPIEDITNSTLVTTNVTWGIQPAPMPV
T1 sequence (P05106 27-718): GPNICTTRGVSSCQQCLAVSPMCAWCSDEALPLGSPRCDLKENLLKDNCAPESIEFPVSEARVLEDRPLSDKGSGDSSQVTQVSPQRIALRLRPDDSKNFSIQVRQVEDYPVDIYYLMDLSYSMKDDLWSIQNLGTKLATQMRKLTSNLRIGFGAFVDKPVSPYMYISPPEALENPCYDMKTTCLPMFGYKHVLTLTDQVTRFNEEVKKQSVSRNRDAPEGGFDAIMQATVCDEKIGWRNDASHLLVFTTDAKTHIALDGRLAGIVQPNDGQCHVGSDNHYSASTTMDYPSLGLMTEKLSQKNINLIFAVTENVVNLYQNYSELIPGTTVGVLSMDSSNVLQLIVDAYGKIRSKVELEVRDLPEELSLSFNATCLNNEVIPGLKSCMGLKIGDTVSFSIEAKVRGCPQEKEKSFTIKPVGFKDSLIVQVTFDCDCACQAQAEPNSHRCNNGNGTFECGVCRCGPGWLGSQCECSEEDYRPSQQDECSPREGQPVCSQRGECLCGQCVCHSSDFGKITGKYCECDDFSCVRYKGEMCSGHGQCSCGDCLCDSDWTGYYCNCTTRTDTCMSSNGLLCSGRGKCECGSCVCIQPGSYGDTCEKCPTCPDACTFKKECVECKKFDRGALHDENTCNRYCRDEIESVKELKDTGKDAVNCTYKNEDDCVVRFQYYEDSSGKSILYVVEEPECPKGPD

Row | Compound | inhibition (integrin αVβ3 [1]; [7]) [%] | IC50 (integrin αVβ3 [1]; [8]) [mM] | inhibition (integrin αVβ3 [2]; [9]) [%] | IC50 (integrin αVβ3 [2]; [10]) [mM] | IC50 (integrin αllbβ3; [12]) [mM] | inhibition (integrin α5β1; [13]) [%] | IC50 (integrin α5β1; [14]) [mM] | other results
1 | CC(=O)NCC(=O)O [Acetylglycine] | 46.8 | > 22 | 58.5 | 9.2 ± 1 | > 22 | 98.9 | 5.8 ± 0.9 | Maximal Inhibition Achieved (integrin αllbβ3; [11]): activation; Maximal Inhibition Achieved (integrin αllbβ3; integrin αllbβ3, immobilized fibrinogen, at 22 mM, activation = higher absorbance than negative control, n. d. = not detected, listed as acetylglycine): high activation
2 | NCP(=O)(O)O [Aminomethylphosphonic acid (AMPA), aminomethylphosphonic acid] | 95.9 | 1.3 ± 0.2 | 75.3 | 1.5 ± 0.4 | > 22 | 44.8 | > 22 | Maximal Inhibition Achieved (integrin αllbβ3; [11]): activation; Maximal Inhibition Achieved (integrin αllbβ3; integrin αllbβ3, immobilized fibrinogen, at 22 mM, activation = higher absorbance than negative control, n. d. = not detected, listed as AMPA): activation; also recorded: activated; Water Solubility ([3]; 20 °C): 56 (20 °C) g/L
3 | NCC(=O)O [Glycine] |  |  |  |  |  |  |  | IC50 (integrin αVβ3 [1]): > 22 mM; IC50 (integrin αVβ3 [2]): > 22 mM; IC50 (integrin αllbβ3): > 22 mM; IC50 (integrin α5β1): > 22 mM; Maximal Inhibition Achieved (integrin α5β1): >22 (22.1 ± 3.3%)
4 | O=C(O)CNCP(=O)(O)O [Glyphosate, N-(phosphonomethyl)glycine] | 100 | 2.7 ± 0.5 | 44.8 | > 22 | > 22 | 85.7 | 9.7 ± 3.2 | Inhibition of RGD-binding capability of αVβ3 integrin (integrin αVβ3 [4]): 96.3 ± 3.2%; Inhibition of binding of αVβ3 to S-protein (integrin αVβ3 [5]): 35.6 ± 4.4%; inhibition (integrin αllbβ3; integrin αllbβ3, immobilized fibrinogen, at 22 mM, activation = higher absorbance than negative control, n. d. = not detected, read-out: Maximal Inhibition Achieved): 40.2%; Water Solubility ([3]; pH 7.0): 157 g/L; Adhesion of MC3T3-E1 cells to RGD motif (MC3T3-E1 cells): significantly reduced
5 | O=C(O)CNCC(=O)O [Iminodiacetic acid] | 24.6 | > 22 | 52.4 | 11.5 ± 1.5 | > 22 | 8 | > 22 | Water Solubility ([3]; 5 °C): 24.3 (5 °C) g/L
6 | CC(=O)N(CC(=O)O)CP(=O)(O)O [N-acetylglyphosate] |  | > 22 | 47.5 | > 22 | > 22 | 15 | > 22 | inhibition at 22000 µM (integrin αVβ3 [1]; integrin αVβ3, immobilized RGD polymer, at 22 mM (highest concentration), read-out: Maximal Inhibition Achieved): 40.6%; Water Solubility ([3]; temperature or pH not given): slight
7 | CNCC(=O)O [Sarcosine] | 35 | > 22 | 37.9 | > 22 | > 22 | 13.4 | > 22 | Clog Po/w [6]: −3.2; Water Solubility ([3]; 20 °C): 89.1 (20 °C) g/L
8 | Glyphosate isopropylammonium salt |  |  |  |  |  |  |  | Clog Po/w [6]: −4.16; Water Solubility ([3]; temperature or pH not given): 1050 g/L
